Measurements published in US9585388B2, “Synergistically acting ternary antimicrobial mixtures” (SYMRISE AG, priority 2011, dated 2017).

Tested on: Aspergillus niger ATCC 16404
Assay: Test for adequate preservation (European Pharmacopoeia) in O/W emulsion, CFU reduction
Assay type: cell-based
Conditions: total concentration used 1 wt % in O/W emulsion, pH 5.5, initial CFU 1200000
Text: In case of doubt, antimicrobial efficacy in the sense of this text is present when adequate preservation is established according to the European Pharmacopoeia (ISBN 3-7692-2768-9; Supplement 2001 to the 3rd Edition, page 421-422, chapter 5.1.3). The microbe preferably to be used is preferably Aspergillus niger ATCC16404. For further information on the procedure for testing for antimicrobial efficacy, reference is made in particular to example 1 given below.
Synergistic intensification (of antimicrobial action) is present when the synergy index (SI value) of the test mixture according to Kull (literature: F. C. Kull et al., Applied Microbiology Vol. 9, p. 538-541 (1961); D. C. Steinberg, Cosmetics & Toiletries Vol. 115(11), 59-62 (2000)) gives a value <1. For further information on calculation of the synergy index, reference is again made to example 1 given below. Once again, the microbe preferably to be used for determining the synergy index is the strain of Aspergillus niger stated above.
The test for adequate preservation was carried out according to the European Pharmacopoeia. […]
To determine the potentially synergistically intensified efficacy of ternary mixtures containing 2-phenoxyethanol, 1,2-decanediol and 1,2-hexanediol, the CFU-reducing properties were determined according to the test procedure described in example 1 for the individual substances, for various binary mixtures and for ternary mixtures according to the invention.
The synergy index (SI values) of the ternary mixtures according to the invention and binary mixtures not according to the invention according to Kull (literature: F. C. Kull et al., Applied Microbiology Vol. 9, p. 538-541 (1961); D. C. Steinberg, Cosmetics & Toiletries Vol. 115(11), 59-62 (2000) was calculated using the following equations. SI=Z*D/A+Z*E/B Binary mixtures: SI=Z*D/A+Z*E/B+Z*F/C Ternary mixture: wherein: D, E, F: factor of proportion of the individual constituents (e.g. 70 wt %=factor 0.70) A, B, C: CFU of the individual substances at time point 48 h Z: CFU of the binary/ternary mixture at time point 48 h […]

OCCOc1ccccc1 [product A, 2-phenoxyethanol]
Aspergillus niger CFU after 48 h: 1100000 CFU

CCCCCCCCC(O)CO (stereo not drawn) [product B, 1,2-decanediol]
Aspergillus niger CFU after 48 h: 1200000 CFU

CCCCC(O)CO (stereo not drawn) [product C, 1,2-hexanediol]
Aspergillus niger CFU after 48 h: 1000000 CFU
